US20030187044A1, “Medicament” (SmithKline Beecham p.l.c., priority 1990, published 2003)

melting point [°C] | Compound
178 to 181 | CCCSc1ncc(C[C@H](NC(=O)CCC)C(=O)O)n1Cc1ccccc1Cl [Example 1, 3-[(2-Chlorophenyl)methyl]-2-propylthio-N -butyrylhistidine]
254 to 255 | CCCCc1nc2cc(Br)cc(C(=O)O)c2n1Cc1ccccc1Cl [Example 4, 5-Bromo-2-n-butyl-1-(2-chlorophenyl)methyl-1H -benzimidazole-7-carboxylic Acid]
